In patent publication US12473293B2, “Pharmacologically active heterocyclic-substituted pyrazolo[1,5-a]pyrimidine derivatives” (Richter Gedeon Nyrt., priority 2020, dated 2025):
Where a name gives a salt, the structure may show the parent alone.

Biological target: T1, GABAB receptor (Rattus norvegicus, UniProt O88871+Q9Z0U4)
T1 construct: from tissue; host or cells: rat brain cortex membranes
Assay: In vitro [35S]GTPγS binding assay in rat cortical membranes
Type: biochemical
Conditions: PAM EC50, [35S]GTPγS binding, read-out: In vitro PAM potency
Description: In Vitro [^35S]GTPγS Binding Assay in Rat Cortical Membranes
Cortices of freshly harvested rat brains were dissected on an ice-cold surface and homogenized by a glass Dounce homogeniser immediately in ice-cold buffer containing 50 mM Tris, 5 mM MgCl2 and 1 mM EDTA (pH=7.6). Tissue homogenates were centrifuged at 40000 g for 15 min at 4° C. Membrane pellets were resuspended in the same buffer and membranes were incubated for 10 min at 30° C. in a shaking water bath to eliminate endogenous GABA. Homogenates were centrifuged again under the same conditions. The final pellets were resuspended in ice-cold buffer (pH=7.6) containing 50 mM Tris, 100 mM NaCl, 7 mM MgCl2, 1 mM EDTA and 1 mM dithiotreithol (DTT) to yield a concentration of 20 mg tissue weight/ml and frozen at −70° C. until use. The assay was done in a buffer containing 50 mM Tris (pH=7.4), 100 mM NaCl, 7 mM MgCl2, 1 mM EDTA and 1 mM DTT. Each assay tube contained 150 μL GDP (in a final concentration of 50 μM), 100 μL ligand and 125 μL of the membrane suspension ([…]). The assay tubes were preincubated for 10 min at 30° C. to assure equilibrium. Nonspecific binding was determined in the presence of 10 μM GTPγS; basal binding was determined in the presence of buffer only. After addition of […] [^35S]GTPγS in a volume of 25 μL to the tubes, membranes were incubated for an additional 60 min at 30° C. The assay was terminated by rapid filtration through Packard UniFilter GF/B using a Packard harvester and washed four times with 1 ml ice-cold buffer. After drying the filters at 40° C. for 1 h, 40 μL Microscint (Packard) was added to the filters and radioactivity of the filters was determined by a TopCount NXT (PerkinElmer, Waltham, MA; Alper and Nelson, Eur. J. Pharmacol. 1998, 343, 303-312; Rinken et al, Biochem. Pharmacol. 1999, 57, 155-162). Data thus gathered were used to determine PAM EC50 values for each compound as primary in vitro activity end point.
In Table 1 compounds of this invention measured in the [^35S]GTPγS binding assay are listed.

T1 sequence (O88871 41-940): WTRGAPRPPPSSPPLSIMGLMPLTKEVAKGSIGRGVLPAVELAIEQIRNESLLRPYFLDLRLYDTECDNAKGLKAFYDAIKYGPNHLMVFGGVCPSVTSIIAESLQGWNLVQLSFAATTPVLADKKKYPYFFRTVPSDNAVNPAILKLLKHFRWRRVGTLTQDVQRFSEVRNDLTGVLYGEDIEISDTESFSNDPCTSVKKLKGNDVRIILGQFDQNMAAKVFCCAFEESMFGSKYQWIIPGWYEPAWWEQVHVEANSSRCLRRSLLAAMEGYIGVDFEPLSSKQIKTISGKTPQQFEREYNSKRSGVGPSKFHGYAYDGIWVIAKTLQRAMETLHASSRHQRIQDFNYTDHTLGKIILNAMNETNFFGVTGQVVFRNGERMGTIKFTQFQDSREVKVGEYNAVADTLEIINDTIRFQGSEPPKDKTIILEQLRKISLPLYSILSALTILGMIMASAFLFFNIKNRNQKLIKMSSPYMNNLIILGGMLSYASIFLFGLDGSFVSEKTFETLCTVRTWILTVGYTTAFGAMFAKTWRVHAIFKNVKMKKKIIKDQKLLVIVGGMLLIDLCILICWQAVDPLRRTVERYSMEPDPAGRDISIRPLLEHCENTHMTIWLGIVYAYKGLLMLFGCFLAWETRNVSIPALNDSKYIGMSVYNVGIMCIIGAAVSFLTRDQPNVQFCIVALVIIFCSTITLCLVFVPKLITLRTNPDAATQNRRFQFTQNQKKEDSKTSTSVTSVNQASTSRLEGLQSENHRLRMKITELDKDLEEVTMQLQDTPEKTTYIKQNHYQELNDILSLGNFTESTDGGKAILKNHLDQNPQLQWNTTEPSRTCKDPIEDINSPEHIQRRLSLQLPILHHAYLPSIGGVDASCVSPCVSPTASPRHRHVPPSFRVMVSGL
T1 sequence (Q9Z0U4 17-960 limits assumed): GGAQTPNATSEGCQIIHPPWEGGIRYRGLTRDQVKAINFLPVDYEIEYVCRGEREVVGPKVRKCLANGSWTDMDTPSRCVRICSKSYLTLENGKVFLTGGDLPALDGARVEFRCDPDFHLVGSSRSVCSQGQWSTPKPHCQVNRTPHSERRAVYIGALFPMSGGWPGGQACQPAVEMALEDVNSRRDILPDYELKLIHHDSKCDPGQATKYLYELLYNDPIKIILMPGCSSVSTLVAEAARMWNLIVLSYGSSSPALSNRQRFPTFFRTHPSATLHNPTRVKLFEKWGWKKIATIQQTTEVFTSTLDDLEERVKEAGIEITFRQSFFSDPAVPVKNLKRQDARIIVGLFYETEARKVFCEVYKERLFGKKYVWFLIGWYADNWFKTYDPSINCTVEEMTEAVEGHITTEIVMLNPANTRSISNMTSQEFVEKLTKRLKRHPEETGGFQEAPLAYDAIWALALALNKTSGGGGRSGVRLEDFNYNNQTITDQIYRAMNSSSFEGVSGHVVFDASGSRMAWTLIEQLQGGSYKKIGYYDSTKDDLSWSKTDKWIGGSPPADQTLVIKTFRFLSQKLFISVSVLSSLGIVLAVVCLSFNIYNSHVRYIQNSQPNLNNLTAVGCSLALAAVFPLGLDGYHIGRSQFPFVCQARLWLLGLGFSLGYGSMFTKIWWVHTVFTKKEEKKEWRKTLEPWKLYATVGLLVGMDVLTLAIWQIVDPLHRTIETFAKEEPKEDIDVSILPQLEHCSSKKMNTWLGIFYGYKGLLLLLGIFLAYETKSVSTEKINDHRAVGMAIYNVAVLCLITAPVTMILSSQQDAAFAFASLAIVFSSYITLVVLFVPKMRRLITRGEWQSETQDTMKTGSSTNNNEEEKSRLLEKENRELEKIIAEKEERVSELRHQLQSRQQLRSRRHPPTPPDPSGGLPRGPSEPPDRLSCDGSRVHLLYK

Row | SMILES | EC50 [nM]
1 | Cc1nc2cc([C@H]3CC[C@H](C(F)(F)F)CC3)nn2c([C@]2(C)CCCN(CC#N)C2)c1C [Example 18, 2-[(3R)-3-{5,6-dimethyl-2-[trans-4-(trifluoromethyl)cyclohexyl]pyrazolo[1,5-a]pyrimidin-7-yl}-3-methylpiperidin-1-yl]acetonitrile hydrochloride] | 100 to 1000
2 | Cc1nc2cc([C@H]3CC[C@H](C(F)(F)F)CC3)nn2c([C@@H]2CCCN(C(=O)[C@@H](N)CO)C2)c1C [Example 21, (2S)-2-amino-1-[(3R)-3-{5,6-dimethyl-2-[trans-4-(trifluoromethyl)cyclohexyl]pyrazolo[1,5-a]pyrimidin-7-yl}piperidin-1-yl]-3-hydroxypropan-1-one] | 1000 to 10000
3 | Cc1cc([C@@H]2CCCN(C(C)C)C2)n2nc([C@H]3CC[C@H](C(F)(F)F)CC3)cc2n1 [Example 24, (3R)-3-{5-methyl-2-[trans-4-(trifluoromethyl)cyclohexyl]pyrazolo[1,5-a]pyrimidin-7-yl}-1-(propan-2-yl)piperidine] | 1000 to 10000
4 | Cc1cc([C@H]2CN(S(N)(=O)=O)CCO2)n2nc([C@H]3CC[C@H](C(F)(F)F)CC3)cc2n1 [Example 25, (2R)-2-{5-methyl-2-[trans-4-(trifluoromethyl)cyclohexyl]pyrazolo[1,5-a]pyrimidin-7-yl}morpholine-4-sulfonamide] | < 100
5 | Cc1cc([C@@H]2CCCS(=O)(=O)C2)n2nc([C@H]3CC[C@H](C(F)(F)F)CC3)cc2n1 [Example 27, 3-{5-methyl-2-[trans-4-(trifluoromethyl)cyclohexyl]pyrazolo[1,5-a]pyrimidin-7-yl}-1λ^6-thiane-1,1-dione] | 100 to 1000
6 | Cc1cc(C2OCCN(C)C2=O)n2nc([C@H]3CC[C@H](C(F)(F)F)CC3)cc2n1 (stereo partly drawn) [Example 30, 4-methyl-2-{5-methyl-2-[trans-4-(trifluoromethyl)cyclohexyl]pyrazolo[1,5-a]pyrimidin-7-yl}morpholin-3-one] | 1000 to 10000
7 | CC(=O)N1CCC[C@@H](c2c(C)c(C)nc3cc([C@H]4CC[C@H](C(F)(F)F)CC4)nn23)C1 [Example 33] | 100 to 1000
8 | CCc1c(C)nc2cc([C@H]3CC[C@H](C(F)(F)F)CC3)nn2c1[C@]1(C)CCCN(C(C)=O)C1 [Example 34] | < 100
9 | CCc1c(C)nc2cc([C@H]3CC[C@H](C(F)(F)F)CC3)nn2c1[C@@]1(C)CCCN(C(C)=O)C1 [Example 35] | < 100
10 | CC(=O)N1CCC[C@](C)(c2cc(C)nc3cc([C@H]4CC[C@H](C(F)(F)F)CC4)nn23)C1 [Example 36] | 1000 to 10000
11 | CC(=O)N1CCC[C@](C)(c2c(C)c(C)nc3cc([C@H]4CC[C@H](C(F)(F)F)CC4)nn23)C1 [Example 37] | 100 to 1000
12 | CC(=O)N1CCCC(c2c(C(C)C)c(C)nc3cc([C@H]4CC[C@H](C(F)(F)F)CC4)nn23)C1 (stereo partly shown) [Example 40] | < 100
13 | CC(=O)N1CCC[C@@](C)(c2cc(C)nc3cc([C@H]4CC[C@H](C(F)(F)F)CC4)nn23)C1 [Example 41] | < 100
14 | CCc1c(C)nc2cc([C@H]3CC[C@H](C(F)(F)F)CC3)nn2c1[C@]1(C)CCCN(S(C)(=O)=O)C1 [Example 44] | < 100
15 | CC(=O)N1CCC[C@@](C)(c2c(C)c(C)nc3cc([C@H]4CC[C@H](C(F)(F)F)CC4)nn23)C1 [Example 45] | 100 to 1000
16 | Cc1nc2cc([C@H]3CC[C@H](C(F)(F)F)CC3)nn2c([C@]2(C)CCCN(CC(F)(F)F)C2)c1C [Example 48] | 100 to 1000
17 | Cc1nc2cc([C@H]3CC[C@H](C(F)(F)F)CC3)nn2c([C@]2(C)CCCN(CC(N)=O)C2)c1C [Example 49] | 1000 to 10000

Row | SMILES | EC50 [nM]
18 | Cc1cc([C@]2(C)CCCN(CC#N)C2)n2nc([C@H]3CC[C@H](C(F)(F)F)CC3)cc2n1 [Example 50] | 100 to 1000
19 | Cc1nc2cc([C@H]3CC[C@H](C(F)(F)F)CC3)nn2c([C@@H]2CCCN(C(=O)CN)C2)c1C [Example 52] | 1000 to 10000
20 | Cc1cc(C2CN(C=O)CCC2(C)C)n2nc([C@H]3CC[C@H](C(F)(F)F)CC3)cc2n1 (stereo partly shown) [Example 59] | 100 to 1000
21 | Cc1cc(C2CN(C3COC3)CCC2(C)C)n2nc([C@H]3CC[C@H](C(F)(F)F)CC3)cc2n1 (stereo partly shown) [Example 60] | 100 to 1000
22 | CC(=O)N1CCCC(CF)(c2cc(C)nc3cc([C@H]4CC[C@H](C(F)(F)F)CC4)nn23)C1 (stereo partly shown) [Example 62] | 100 to 1000
23 | Cc1cc([C@@H]2CCCN(C3CCOC3)C2)n2nc([C@H]3CC[C@H](C(F)(F)F)CC3)cc2n1 (stereo partly shown) [Example 63] | 100 to 1000
24 | Cc1cc([C@]2(C)CCCN(C(=N)N)C2)n2nc([C@H]3CC[C@H](C(F)(F)F)CC3)cc2n1 [Example 64] | 1000 to 10000
25 | Cc1cc([C@@H]2CCCN(C(=O)N3CCOCC3)C2)n2nc([C@H]3CC[C@H](C(F)(F)F)CC3)cc2n1 [Example 65] | 1000 to 10000
26 | Cc1cc([C@]2(C)CCCN(C=O)C2)n2nc([C@H]3CC[C@H](C(F)(F)F)CC3)cc2n1 [Example 69] | 100 to 1000
27 | CC(=O)N1CCOC(c2c(C)c(C)nc3cc([C@H]4CC[C@H](C(F)(F)F)CC4)nn23)C1 (stereo partly shown) [Example 70] | 100 to 1000
28 | Cc1cc([C@]2(C)CCCN(S(N)(=O)=O)C2)n2nc([C@H]3CC[C@H](C(F)(F)F)CC3)cc2n1 [Example 71] | 1000 to 10000
29 | CCC1CCN(C=O)CC1c1cc(C)nc2cc([C@H]3CC[C@H](C(F)(F)F)CC3)nn12 (stereo partly shown) [Example 72] | 100 to 1000
30 | Cc1cc(C2(C)CN(C=O)CC(F)(F)C2)n2nc([C@H]3CC[C@H](C(F)(F)F)CC3)cc2n1 (stereo partly shown) [Example 78] | 100 to 1000
31 | Cc1nc2cc([C@H]3CC[C@H](C(F)(F)F)CC3)nn2c(C2CN(C(=O)C3(C)COC3)CC(F)(F)C2)c1C (stereo partly shown) [Example 79] | 100 to 1000
32 | Cc1nc2cc([C@H]3CC[C@H](C(F)(F)F)CC3)nn2c(C2CN(C=O)CCO2)c1C (stereo partly shown) [Example 80] | 100 to 1000
33 | Cc1cc(C2CN(C=O)CCS2(=O)=O)n2nc([C@H]3CC[C@H](C(F)(F)F)CC3)cc2n1 (stereo partly shown) [Example 87] | ≥ 10000
34 | CC(=O)N1CCO[C@@H](c2c(C)c(C)nc3cc([C@H]4CC[C@H](C(F)(F)F)CC4)nn23)C1 [Example 88] | 100 to 1000

Next, values leading:

Row | EC50 [nM] | SMILES
35 | 1000 to 10000 | COC(=O)N1CC[S+]([O-])C(c2cc(C)nc3cc([C@H]4CC[C@H](C(F)(F)F)CC4)nn23)C1 (stereo partly shown) [Example 17]
36 | 100 to 1000 | Cc1cc([C@@H]2CCCN(C=O)C2)n2nc([C@H]3CC[C@H](C(F)(F)F)CC3)cc2n1 [Example 22, (3R)-3-{5-methyl-2-[trans-4-(trifluoromethyl)cyclohexyl]pyrazolo[1,5-a]pyrimidin-7-yl}piperidine-1-carbaldehyde]
37 | 100 to 1000 | Cc1cc([C@@H]2CCCN(C(=N)N)C2)n2nc([C@H]3CC[C@H](C(F)(F)F)CC3)cc2n1 [Example 23, (3R)-3-{5-methyl-2-[trans-4-(trifluoromethyl)cyclohexyl]pyrazolo[1,5-a]pyrimidin-7-yl}piperidine-1-carboximidamide hydrochloride]
38 | 100 to 1000 | Cc1cc([C@H]2CN(C(N)=O)CCO2)n2nc([C@H]3CC[C@H](C(F)(F)F)CC3)cc2n1 [Example 26, (2R)-2-{5-methyl-2-[trans-4-(trifluoromethyl)cyclohexyl]pyrazolo[1,5-a]pyrimidin-7-yl}morpholine-4-carboxamide]
39 | 100 to 1000 | CCc1c(C)nc2cc([C@H]3CC[C@H](C(F)(F)F)CC3)nn2c1[C@@H]1CCCN(C(=O)OC)C1 [Example 51]
40 | 1000 to 10000 | Cc1cc([C@@H]2CN(C(=O)CN)CC[C@H]2C)n2nc([C@H]3CC[C@H](C(F)(F)F)CC3)cc2n1 [Example 53]
41 | 100 to 1000 | Cc1cc([C@@H]2CCCN(C(=O)C3CC3)C2)n2nc([C@H]3CC[C@H](C(F)(F)F)CC3)cc2n1 [Example 54]
42 | 100 to 1000 | Cc1cc(C2CN(C)CCC2(C)C)n2nc([C@H]3CC[C@H](C(F)(F)F)CC3)cc2n1 (stereo partly shown) [Example 61]
43 | 100 to 1000 | CCC1CCN(C(=O)OC)CC1c1cc(C)nc2cc([C@H]3CC[C@H](C(F)(F)F)CC3)nn12 (stereo partly shown) [Example 67]
44 | 1000 to 10000 | COC(=O)N1CCOC(C)(c2cc(C)nc3cc([C@H]4CC[C@H](C(F)(F)F)CC4)nn23)C1 (stereo partly shown) [Example 73]
45 | 100 to 1000 | COC(=O)N1CC(c2c(C)c(C)nc3cc([C@H]4CC[C@H](C(F)(F)F)CC4)nn23)CC(F)(F)C1 (stereo partly shown) [Example 74]
46 | < 100 | COC(=O)N1CC[C@H](C)[C@H](c2c(C)c(C)nc3cc([C@H]4CC[C@H](C(F)(F)F)CC4)nn23)C1 [Example 77]
47 | 100 to 1000 | Cc1cc(C2CN(C=O)CCO2)n2nc([C@H]3CC[C@H](C(F)(F)F)CC3)cc2n1 (stereo partly shown) [Example 83]
48 | 100 to 1000 | COC(=O)N1CCOC(c2cc(C)nc3cc([C@H]4CC[C@H](C(F)(F)F)CC4)nn23)C1 (stereo partly shown) [Example 84]
49 | 100 to 1000 | Cc1cc([C@H]2CN(C=O)CCO2)n2nc([C@H]3CC[C@H](C(F)(F)F)CC3)cc2n1 [Example 86]
